Assays:
Type in all cases: functional
T47D [1] = assay: Cytotoxicity against human T47D cells at 10 uM after 48 hrs by sulforhodamine B assay relative to control
MDA-MB-231 = assay: Cytotoxicity against human MDA-MB-231 cells after 48 hrs by sulforhodamine B assay; conditions: MDA-MB-231, 48 h
COLO 205 = assay: Cytotoxicity against human COLO205 cells at 10 uM after 48 hrs by sulforhodamine B assay relative to control
NCI-H23 [2] = assay: Cytotoxicity against human NCI-H23 cells after 48 hrs by sulforhodamine B assay; conditions: NCI-H23, 48 h
MOLT-4 = assay: Cytotoxicity against human MOLT4 cells after 48 hrs by sulforhodamine B assay; conditions: MOLT-4, 48 h
NCI/ADR-RES = assay: Cytotoxicity against human NCI/ADR-RES cells after 48 hrs by sulforhodamine B assay
SR = assay: Cytotoxicity against human SR cells after 48 hrs by sulforhodamine B assay
BT-549 = assay: Cytotoxicity against human BT549 cells after 48 hrs by sulforhodamine B assay; conditions: BT-549, 48 h
UACC-62 = assay: Cytotoxicity against human UACC62 cells at 10 uM after 48 hrs by sulforhodamine B assay relative to control
ACHN = assay: Cytotoxicity against human ACHN cells at 10 uM after 48 hrs by sulforhodamine B assay relative to control
CCRF-CEM = assay: Cytotoxicity against human CCRF-CEM cells after 48 hrs by sulforhodamine B assay
M14 = assay: Cytotoxicity against human M14 cells after 48 hrs by sulforhodamine B assay; conditions: M14, 48 h
NCI-H460 = assay: Cytotoxicity against human NCI-H460 cells at 10 uM after 48 hrs by sulforhodamine B assay relative to control
SK-MEL-2 [3] = assay: Cytotoxicity against human SK-MEL-2 cells after 48 hrs by sulforhodamine B assay; conditions: SK-MEL-2, 48 h
Malme-3M = assay: Cytotoxicity against human MALME-3M cells after 48 hrs by sulforhodamine B assay
SW-620 = assay: Cytotoxicity against human SW620 cells after 48 hrs by sulforhodamine B assay; conditions: SW-620, 48 h
786-0 = assay: Cytotoxicity against human 786-0 cells after 48 hrs by sulforhodamine B assay; conditions: 786-0, 48 h
HL-60(TB) [4] = assay: Cytotoxicity against human HL-60(TB) cells at 10 uM after 48 hrs by sulforhodamine B assay relative to control
SK-MEL-2 [5] = assay: Cytotoxicity against human SK-MEL-2 cells at 10 uM after 48 hrs by sulforhodamine B assay relative to control
K562 = assay: Cytotoxicity against human K562 cells at 10 uM after 48 hrs by sulforhodamine B assay relative to control
SN12C = assay: Cytotoxicity against human SN12C cells after 48 hrs by sulforhodamine B assay
UACC-257 = assay: Cytotoxicity against human UACC257 cells at 10 uM after 48 hrs by sulforhodamine B assay relative to control
OVCAR-8 = assay: Cytotoxicity against human OVCAR8 cells at 10 uM after 48 hrs by sulforhodamine B assay relative to control
HCT-15 = assay: Cytotoxicity against human HCT15 cells after 48 hrs by sulforhodamine B assay; conditions: HCT-15, 48 h
LOX IMVI [6] = assay: Cytotoxicity against human LOXIMVI cells after 48 hrs by sulforhodamine B assay
NCI-H23 [7] = assay: Cytotoxicity against human NCI-H23 cells at 10 uM after 48 hrs by sulforhodamine B assay relative to control
HL-60(TB) [8] = assay: Cytotoxicity against human HL-60(TB) cells after 48 hrs by sulforhodamine B assay; conditions: HL-60, 48 h
[9] = Cytotoxicity against human EKVX cells at 10 uM after 48 hrs by sulforhodamine B assay relative to control
SNB-75 = assay: Cytotoxicity against human SNB75 cells at 10 uM after 48 hrs by sulforhodamine B assay relative to control
LOX IMVI [10] = assay: Cytotoxicity against human LOXIMVI cells at 10 uM after 48 hrs by sulforhodamine B assay relative to control
[11] = Cytotoxicity against human Hs 578T cells at 10 uM after 48 hrs by sulforhodamine B assay relative to control
T47D [12] = assay: Cytotoxicity against human T47D cells after 48 hrs by sulforhodamine B assay
HCT-116 = assay: Cytotoxicity against human HCT116 cells after 48 hrs by sulforhodamine B assay; conditions: HCT-116, 48 h
CAKI-1 = assay: Cytotoxicity against human CAKI-1 cells at 10 uM after 48 hrs by sulforhodamine B assay relative to control
OVCAR-5 = assay: Cytotoxicity against human OVCAR5 cells at 10 uM after 48 hrs by sulforhodamine B assay relative to control
SK-OV-3 = assay: Cytotoxicity against human SKOV3 cells after 48 hrs by sulforhodamine B assay; conditions: SK-OV-3, 48 h
TK-10 = assay: Cytotoxicity against human TK10 cells after 48 hrs by sulforhodamine B assay; conditions: TK-10, 48 h
HT-29 = assay: Cytotoxicity against human HT-29 cells at 10 uM after 48 hrs by sulforhodamine B assay relative to control
NCI-H322M = assay: Cytotoxicity against human NCI-H322M cells at 10 uM after 48 hrs by sulforhodamine B assay relative to control
SK-MEL-5 = assay: Cytotoxicity against human SK-MEL-5 cells after 48 hrs by sulforhodamine B assay; conditions: SK-MEL-5, 48 h
[13] = read-out: LC50 (the source's name)

CCCCNCC(=O)Nc1ccc2c(c1)C(=O)c1cc(NC(=O)CNCCCC)ccc1-2
Activity (T47D [1]): -26.4% | GI50 (MDA-MB-231): 1.39 µM | TGI (MDA-MB-231): 2.9 µM | CC50 (MDA-MB-231; [13]): 6.02 µM | Activity (COLO 205): -86.41% | GI50 (NCI-H23 [2]): 2.63 µM | TGI (NCI-H23 [2]): 10.1 µM | CC50 (NCI-H23 [2]; [13]): 35.7 µM | GI50 (MOLT-4): 0.56 µM | TGI (MOLT-4): 2.29 µM | CC50 (MOLT-4; [13]): 7.26 µM | GI50 (NCI/ADR-RES): 2.89 µM | TGI (NCI/ADR-RES): 10.9 µM | CC50 (NCI/ADR-RES; [13]): 41.4 µM | GI50 (SR): 0.22 µM | TGI (SR): 0.53 µM | CC50 (SR; [13]): 3.44 µM | GI50 (BT-549): 2.05 µM | TGI (BT-549): 6.05 µM | CC50 (BT-549; [13]): 24.6 µM | Activity (UACC-62): 7.57% | Activity (ACHN): 18.19% | GI50 (CCRF-CEM): 1.6 µM | TGI (CCRF-CEM): 4.02 µM | CC50 (CCRF-CEM; [13]): 10.7 µM | GI50 (M14): 1.6 µM | TGI (M14): 3.08 µM | CC50 (M14; [13]): 5.94 µM | Activity (NCI-H460): -27.51% | GI50 (SK-MEL-2 [3]): 1.76 µM | TGI (SK-MEL-2 [3]): 3.3 µM | CC50 (SK-MEL-2 [3]; [13]): 6.18 µM | GI50 (Malme-3M): 1.94 µM | TGI (Malme-3M): 3.98 µM | CC50 (Malme-3M; [13]): 8.17 µM | GI50 (SW-620): 1.25 µM | TGI (SW-620): 3 µM | CC50 (SW-620; [13]): 7.16 µM | GI50 (786-0): 1.43 µM | TGI (786-0): 2.82 µM | CC50 (786-0; [13]): 5.56 µM | Activity (HL-60(TB) [4]): -63.01% | Activity (SK-MEL-2 [5]): -63.34% | Activity (K562): -53.98% | GI50 (SN12C): 3.48 µM | TGI (SN12C): 14.6 µM | CC50 (SN12C; [13]): 41.2 µM | Activity (UACC-257): -84.17% | Activity (OVCAR-8): 9.6% | GI50 (HCT-15): 1.26 µM | TGI (HCT-15): 3.34 µM | CC50 (HCT-15; [13]): 8.89 µM | GI50 (LOX IMVI [6]): 1.05 µM | TGI (LOX IMVI [6]): 2.34 µM | CC50 (LOX IMVI [6]; [13]): 5.18 µM | Activity (NCI-H23 [7]): 70.39% | GI50 (HL-60(TB) [8]): 1.1 µM | TGI (HL-60(TB) [8]): 2.77 µM | CC50 (HL-60(TB) [8]; [13]): 6.98 µM | Activity [9]: 58.12% | Activity (SNB-75): 36.53% | Activity (LOX IMVI [10]): -78.38% | Activity [11]: 37.13% | GI50 (T47D [12]): 1.56 µM | TGI (T47D [12]): 2.98 µM | CC50 (T47D [12]; [13]): 5.71 µM | GI50 (HCT-116): 0.81 µM | TGI (HCT-116): 2.18 µM | CC50 (HCT-116; [13]): 5.16 µM | Activity (CAKI-1): 62.66% | Activity (OVCAR-5): 93.22% | GI50 (SK-OV-3): 2.55 µM | TGI (SK-OV-3): 8.26 µM | CC50 (SK-OV-3; [13]): 29.5 µM | GI50 (TK-10): 2.43 µM | TGI (TK-10): 6.67 µM | CC50 (TK-10; [13]): 24.1 µM | Activity (HT-29): -52.59% | Activity (NCI-H322M): -0.61% | GI50 (SK-MEL-5): 1.77 µM | TGI (SK-MEL-5): 3.18 µM | CC50 (SK-MEL-5; [13]): 5.71 µM

Source: ChEMBL document CHEMBL2439971, “Design, synthesis and antiproliferative evaluation of fluorenone analogs with DNA topoisomerase I inhibitory properties” (Bioorg Med Chem, 2013)
